# Test results reported in patent US9695155B2, “Herbicidal substituted pyrimidinyloxy benzene compounds” (E. I. DU PONT DE NEMOURS AND COMPANY, priority 2013, dated 2017).
# Assays:
# Test in all cases: Test E preemergence
# [1] = test system: surinam grass; type: in vivo, Brachiaria decumbens; details: for Surinam Grass plant response rating: scale 0 to 100 (0 no effect, 100 complete control)
# Procedure, shortened: (§1)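 Test chemicals formulated in a non-phytotoxic solvent mixture containing a surfactant were applied preemergence to seeds in silt loam soil or postemergence to plants at the 1- to 4-leaf stage in potting mix. After 14 to 21 days in a greenhouse, injury was visually rated against controls on a 0-100 scale (0 = no effect, 100 = complete control).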
# [2] = test system: goosegrass; type: in vivo, Eleusine indica; details: for Goosegrass plant response rating: scale 0 to 100 (0 no effect, 100 complete control)
# Procedure, shortened: as §1
# [3] = test system: sandbur; type: in vivo, Cenchrus echinatus; details: for Sandbur plant response rating: scale 0 to 100 (0 no effect, 100 complete control)
# Procedure, shortened: as §1
# [4] = test system: barnyardgrass; type: in vivo, Echinochloa crus-galli; details: preemergence; for Barnyardgrass plant response rating: scale 0 to 100 (0 no effect, 100 complete control)
# Text: (§2) Seeds of plant species selected from corn (Zea mays), soybean (Glycine max), velvetleaf (Abutilon theophrasti), lambsquarters (Chenopodium album), wild poinsettia (Euphorbia heterophylla), palmer pigweed (Amaranthus palmeri), waterhemp (common waterhemp, Amaranthus rudis), surinam grass (Brachiaria decumbens), large (Lg) crabgrass (Digitaria sanguinalis), Brazilian crabgrass (Digitaria horizontalis), fall panicum (Panicum dichotomiflorum), giant foxtail (Setaria faberii), green foxtail (Setaria viridis), goosegrass (Eleusine indica), johnsongrass (Sorghum halepense), ragweed (common ragweed, Ambrosia elatior), barnyardgrass (Echinochloa crus-galli), sandbur (southern sandbur, Cenchrus echinatus), arrowleaf sida (Sida rhombifolia), Italian ryegrass (Lolium multiflorum), dayflower (Virginia (VA) dayflower, Commelina virginica), field bindweed (Convolvulus arvensis), morningglory (Ipomoea coccinea), nightshade (eastern black nightshade, Solanum ptycanthum), kochia (Kochia scoparia), yellow nutsedge (Cyperus esculentus), cocklebur (common cocklebur, Xanthium strumarium), smartweed (ladysthumb smartweed, and hairy beggarticks (Bidens pilosa), were planted into a silt loam soil and treated preemergence with test chemicals formulated in a non-phytotoxic solvent mixture which included a surfactant.
# (§3) At the same time, plants from these crop and weed species and also horseweed (Canada horseweed, Conyza canadensis), waterhemp_RES1, (ALS & Triazine resistant common waterhemp, Amaranthus rudis), and waterhemp_RES2, (ALS & HPPD resistant common waterhemp, Amaranthus rudis) were planted in pots containing Redi-Earth® planting medium (Scotts Company, 14111 Scottslawn Road, Marysville, Ohio 43041) comprising spaghnum peat moss, vermiculite, wetting agent and starter nutrients were treated with postemergence applications of test chemicals formulated in the same manner. Plants ranged in height from 2 to 18 cm for postemergence treatments (1- to 4-leaf stage). Treated plants and controls were maintained in a greenhouse for 14 to 21 days, after which time all species were compared to controls and visually evaluated. Plant response ratings, summarized in Table E, are based on a scale of 0 to 100 where 0 is no effect and 100 is complete control. A dash (-) response means no test result.
# [5] = test system: green foxtail; type: in vivo, Setaria viridis; details: for Foxtail, Green plant response rating: scale 0 to 100 (0 no effect, 100 complete control)
# Procedure, shortened: as §1
# [6] = test system: arrowleaf sida; type: in vivo, Sida rhombifolia; details: preemergence; for Arrowleaf Sida plant response rating: scale 0 to 100 (0 no effect, 100 complete control)
# Procedure, shortened: as §1
# [7] = test system: hairy beggarticks; type: in vivo, Bidens pilosa; details: preemergence; for Beggarticks plant response rating: scale 0 to 100 (0 no effect, 100 complete control)
# Text: as §2, §3
# [8] = test system: giant foxtail; type: in vivo, Setaria faberii; details: for Foxtail, Giant plant response rating: scale 0 to 100 (0 no effect, 100 complete control)
# Procedure, shortened: as §1
# [9] = test system: nightshade; type: in vivo, Solanum ptycanthum; details: for Nightshade plant response rating: scale 0 to 100 (0 no effect, 100 complete control)
# Procedure, shortened: as §1
# [10] = test system: wild poinsettia; type: in vivo, Euphorbia heterophylla; details: for Poinsettia, Wild plant response rating: scale 0 to 100 (0 no effect, 100 complete control)
# Procedure, shortened: as §1
# [11] = 125 g ai/ha, scale 0 to 100, 0 no effect, 100 complete control
# [12] = 250 g ai/ha, scale 0 to 100, 0 no effect, 100 complete control
# [13] = 8 g ai/ha, scale 0 to 100, 0 is no effect, 100 is complete control
structure (smiles),measurement,setting,value
Cc1cnc(Oc2cccc(C#N)c2-n2cc(C(F)(F)F)cn2)nc1 [Compound 180],Surinam Grass plant response rating,[1]; 31 g ai/ha,10
same,Surinam Grass plant response rating,[1]; 62 g ai/ha,25
same,"Plant response rating, Surinam Grass",[1]; [11],75
same,"Plant response rating, Surinam Grass",[1]; [12],100
same,Goosegrass plant response rating,[2]; 31 g ai/ha,70
same,Goosegrass plant response rating,[2]; 62 g ai/ha,90
same,"Plant response rating, Goosegrass",[2]; [11],98
same,"Plant response rating, Goosegrass",[2]; [12],100
same,Sandbur plant response rating,[3]; 31 g ai/ha,0
same,Sandbur plant response rating,[3]; 62 g ai/ha,20
same,"Plant response rating, Sandbur",[3]; [11],75
same,"Plant response rating, Sandbur",[3]; [12],90
same,Barnyardgrass plant response rating,[4]; 31 g ai/ha,20
same,Barnyardgrass plant response rating,[4]; 62 g ai/ha,98
same,"Plant response rating, Barnyardgrass",[4]; [11],100
same,"Plant response rating, Barnyardgrass",[4]; [12],100
same,"Foxtail, Green plant response rating",[5]; 31 g ai/ha,65
same,"Foxtail, Green plant response rating",[5]; 62 g ai/ha,100
same,"Plant response rating, Foxtail, Green",[5]; [11],100
same,"Plant response rating, Foxtail, Green",[5]; [12],100
same,Arrowleaf Sida plant response rating,[6]; 31 g ai/ha,15
same,Arrowleaf Sida plant response rating,[6]; 62 g ai/ha,30
same,"Plant response rating, Arrowleaf Sida",[6]; [11],70
same,"Plant response rating, Arrowleaf Sida",[6]; [12],85
same,Beggarticks plant response rating,[7]; 31 g ai/ha,10
same,Beggarticks plant response rating,[7]; 62 g ai/ha,20
same,"Plant response rating, Beggarticks",[7]; [11],40
same,"Plant response rating, Beggarticks",[7]; [12],90
same,"Foxtail, Giant plant response rating",[8]; 31 g ai/ha,75
same,"Foxtail, Giant plant response rating",[8]; 62 g ai/ha,100
same,"Plant response rating, Foxtail, Giant",[8]; [11],100
same,"Plant response rating, Foxtail, Giant",[8]; [12],100
same,Nightshade plant response rating,[9]; 31 g ai/ha,75
same,Nightshade plant response rating,[9]; 62 g ai/ha,98
same,"Plant response rating, Nightshade",[9]; [11],98
same,"Plant response rating, Nightshade",[9]; [12],100
same,"Poinsettia, Wild plant response rating",[10]; 31 g ai/ha,10
same,"Poinsettia, Wild plant response rating",[10]; 62 g ai/ha,15
same,"Plant response rating, Poinsettia, Wild",[10]; [11],65
same,"Plant response rating, Poinsettia, Wild",[10]; [12],98
NC(=S)c1cccc(Oc2ncc(Cl)cn2)c1-n1cc(Cl)cn1 [Compound 292],"Plant response rating, Surinam Grass",[1]; [13],0
same,Surinam Grass plant response rating,[1]; 31 g ai/ha,0
same,Surinam Grass plant response rating,[1]; 62 g ai/ha,10
same,"Plant response rating, Surinam Grass",[1]; [11],20
same,"Plant response rating, Goosegrass",[2]; [13],0
same,Goosegrass plant response rating,[2]; 31 g ai/ha,20
same,Goosegrass plant response rating,[2]; 62 g ai/ha,50
same,"Plant response rating, Goosegrass",[2]; [11],70
same,"Plant response rating, Sandbur",[3]; [13],0
same,Sandbur plant response rating,[3]; 31 g ai/ha,20
same,Sandbur plant response rating,[3]; 62 g ai/ha,0
same,"Plant response rating, Sandbur",[3]; [11],35
same,"Plant response rating, Barnyardgrass",[4]; [13],0
same,Barnyardgrass plant response rating,[4]; 16 g ai/ha,0
same,Barnyardgrass plant response rating,[4]; 31 g ai/ha,0
same,Barnyardgrass plant response rating,[4]; 62 g ai/ha,0
same,"Plant response rating, Barnyardgrass",[4]; [11],40
same,"Plant response rating, Foxtail, Green",[5]; [13],0
same,"Foxtail, Green plant response rating",[5]; 16 g ai/ha,0
same,"Foxtail, Green plant response rating",[5]; 31 g ai/ha,10
same,"Foxtail, Green plant response rating",[5]; 62 g ai/ha,25
same,"Plant response rating, Foxtail, Green",[5]; [11],75
same,"Plant response rating, Arrowleaf Sida",[6]; [13],0
same,Arrowleaf Sida plant response rating,[6]; 16 g ai/ha,0
same,Arrowleaf Sida plant response rating,[6]; 31 g ai/ha,5
same,Arrowleaf Sida plant response rating,[6]; 62 g ai/ha,5
same,"Plant response rating, Arrowleaf Sida",[6]; [11],80
same,"Plant response rating, Beggarticks",[7]; [13],0
same,Beggarticks plant response rating,[7]; 16 g ai/ha,0
same,Beggarticks plant response rating,[7]; 31 g ai/ha,15
same,Beggarticks plant response rating,[7]; 62 g ai/ha,15
same,"Plant response rating, Beggarticks",[7]; [11],35
same,"Plant response rating, Foxtail, Giant",[8]; [13],0
same,"Foxtail, Giant plant response rating",[8]; 16 g ai/ha,0
same,"Foxtail, Giant plant response rating",[8]; 31 g ai/ha,5
same,"Foxtail, Giant plant response rating",[8]; 62 g ai/ha,80
same,"Plant response rating, Foxtail, Giant",[8]; [11],95
same,"Plant response rating, Nightshade",[9]; [13],0
same,Nightshade plant response rating,[9]; 31 g ai/ha,5
same,Nightshade plant response rating,[9]; 62 g ai/ha,70
same,"Plant response rating, Nightshade",[9]; [11],80
same,"Plant response rating, Poinsettia, Wild",[10]; [13],0
same,"Poinsettia, Wild plant response rating",[10]; 31 g ai/ha,5
same,"Poinsettia, Wild plant response rating",[10]; 62 g ai/ha,35
same,"Plant response rating, Poinsettia, Wild",[10]; [11],60
FC(F)c1cccc(Oc2ncc(Cl)cn2)c1-n1cc(C(F)(F)F)cn1 [Compound 170],"Plant response rating, Surinam Grass",[1]; [13],0
same,Surinam Grass plant response rating,[1]; 31 g ai/ha,0
same,Surinam Grass plant response rating,[1]; 62 g ai/ha,15
same,"Plant response rating, Surinam Grass",[1]; [11],25
same,"Plant response rating, Goosegrass",[2]; [13],0
same,Goosegrass plant response rating,[2]; 31 g ai/ha,40
same,Goosegrass plant response rating,[2]; 62 g ai/ha,75
same,"Plant response rating, Goosegrass",[2]; [11],98
same,"Plant response rating, Sandbur",[3]; [13],0
same,Sandbur plant response rating,[3]; 31 g ai/ha,0
same,Sandbur plant response rating,[3]; 62 g ai/ha,30
same,"Plant response rating, Sandbur",[3]; [11],35
same,"Plant response rating, Barnyardgrass",[4]; [13],0
same,Barnyardgrass plant response rating,[4]; 16 g ai/ha,0
same,Barnyardgrass plant response rating,[4]; 31 g ai/ha,0
same,Barnyardgrass plant response rating,[4]; 62 g ai/ha,35
same,"Plant response rating, Barnyardgrass",[4]; [11],75
same,"Plant response rating, Foxtail, Green",[5]; [13],0
same,"Foxtail, Green plant response rating",[5]; 16 g ai/ha,0
same,"Foxtail, Green plant response rating",[5]; 31 g ai/ha,40
same,"Foxtail, Green plant response rating",[5]; 62 g ai/ha,90
same,"Plant response rating, Foxtail, Green",[5]; [11],100
same,"Plant response rating, Arrowleaf Sida",[6]; [13],0
same,Arrowleaf Sida plant response rating,[6]; 16 g ai/ha,0
same,Arrowleaf Sida plant response rating,[6]; 31 g ai/ha,10
same,Arrowleaf Sida plant response rating,[6]; 62 g ai/ha,90
same,"Plant response rating, Arrowleaf Sida",[6]; [11],100
same,"Plant response rating, Beggarticks",[7]; [13],0
same,Beggarticks plant response rating,[7]; 16 g ai/ha,0
same,Beggarticks plant response rating,[7]; 31 g ai/ha,0
same,Beggarticks plant response rating,[7]; 62 g ai/ha,0
same,"Plant response rating, Beggarticks",[7]; [11],0
same,"Plant response rating, Foxtail, Giant",[8]; [13],0
same,"Foxtail, Giant plant response rating",[8]; 16 g ai/ha,0
same,"Foxtail, Giant plant response rating",[8]; 31 g ai/ha,25
same,"Foxtail, Giant plant response rating",[8]; 62 g ai/ha,100
same,"Plant response rating, Foxtail, Giant",[8]; [11],100
same,"Plant response rating, Nightshade",[9]; [13],0
same,Nightshade plant response rating,[9]; 31 g ai/ha,50
same,Nightshade plant response rating,[9]; 62 g ai/ha,98
same,"Plant response rating, Nightshade",[9]; [11],98
same,"Plant response rating, Poinsettia, Wild",[10]; [13],0
same,"Poinsettia, Wild plant response rating",[10]; 31 g ai/ha,20
same,"Poinsettia, Wild plant response rating",[10]; 62 g ai/ha,25
same,"Plant response rating, Poinsettia, Wild",[10]; [11],40
